{
  "source": "patent US20120021988A1",
  "about": "“METHODS FOR TREATING IMMUNE THROMBOCYTOPENIA” (priority 2007, published 2012)",
  "key": {"[1]": {"test_system": "human C1q", "assay": "Reverse ELISA: inhibition of PAP immune complex binding to C1q coated plates", "from_the_text": "(§1) For this reason, a “reverse ELISA” technique has been used to assess binding of the Fc region to ligands that bind to immune complexed IgG Fc. In a reverse ELISA, the enzyme (e.g., HRP) is not covalently conjugated to the Fc portion of the secondary antibody. Rather, a preformed immune complex of peroxidase-rabbit (or mouse) anti-peroxidase IgG (“PAP” complex) is used. […] In the reverse ELISA system, an Fc CH2-CH3 cleft binding ligand (e.g., purified human C1q) was bound to microwell plates. In the absence of competitor, PAP complexes bound to the immobilized ligand and the reaction between HRP and its substrate produces a signal. This signal was reduced by polypeptides and compounds that inhibited PAP binding to the immobilized ligand.\nPAP complexes were formed mixing 2 μl of rabbit anti-peroxidase (Sigma Chemicals, St. Louis, Mo.; Cat. No. P7899) with 50 μl of peroxidase (Sigma-Aldrich, Cat. No. P6782) in 1 ml distilled water. PAP (100 μl) were pre-incubated with 100 μl of peptide for one hour, 100 μl were pre-incubated with 100 μl of peptide or human C1q (Quidel Corp., San Diego, Calif.) for one hour. The C1q/PAP and peptide/PAP mixtures (100 μl) were incubated with C1q coated plates for 30 minutes. After washing, plates were incubated with ATBS (Quidel Corp.) for 15 minutes and read at 405 nm."}, "[2]": {"test_system": "FcγIIb", "assay": "FcγR reverse ELISA: inhibition of PAP immune complex binding (Table 2)", "conditions": "PAP/peptide mixture on FcγR coated plates; positive control 1.394", "from_the_text": "as §1\n(§2) Once the reverse ELISA protocol was established using the C1q assay, the assay was redesigned using FcγIIa, FcγIIb and FcγIII in place of C1q. Highly purified FcγIIa, FcγIIb and FcγIII (R&D Systems, Minneapolis, Minn.) were immunoadsorbed onto plastic microwells. After optimizing the FcγR reverse ELISA system, simple competitive inhibition experiments using polypeptides provided herein were conducted to investigate their ability to inhibit binding of immune complexes to purified FcγR.\n(§3) Falcon microtiter plates were coated with 1:10 dilutions of highly purified FcγIIa, FcγIIb and FcγIII and incubated for 24 hours. The plates were washed and then blocked with 5×BSA blocking solution (Alpha Diagnostic International, San Antonio, Tex.) for 24 hours. PAP immune complexes were formed as described in Example 1. PAP (100 μl) were pre-incubated with 100 μl of peptide for one hour. PAP/peptide mixtures were added to the FcγR coated plates and incubated for one hour. After washing, plates were incubated with ABTS substrate (Quidel Corp.) for 15 minutes and read at 405 nm."}, "[3]": {"test_system": "FcγIIa (R131 allele)", "assay": "FcγR reverse ELISA: inhibition of PAP immune complex binding (Table 2)", "conditions": "PAP/peptide mixture on FcγR coated plates; positive control 1.599", "from_the_text": "as §1, §2, §3"}, "[4]": {"test_system": "FcγIIIa", "assay": "FcγR reverse ELISA: inhibition of PAP immune complex binding (Table 2)", "conditions": "PAP/peptide mixture on FcγR coated plates; positive control 1.588", "from_the_text": "as §1, §2, §3"}, "[5]": {"test_system": "Fcγ1", "assay": "Repeated FcγR reverse ELISA with SEQ ID NO:20 (Table 3)", "assay_type": "binding"}, "[6]": {"test_system": "FcγIIa (His 131 allele)", "assay": "Repeated FcγR reverse ELISA with SEQ ID NO:20 (Table 3)", "assay_type": "binding", "conditions": "H131 allele", "method": "(§4) Experiments with SEQ ID NO:20 were repeated. Costar microtiter plates were coated with 1:10 dilutions of highly purified FcγIIa (His 131 allele aka […]), FcγIIb and FcγIIIb and incubated for 24 hours. The plates were washed and then blocked with 10 mg/ml BSA blocking solution for 24 hours. PAP immune complexes were formed as described in Example 2. PAP (100 μl) were pre-incubated with 100 μl of peptide for one hour. PAP/peptide mixtures were added to the FcγR coated plates and incubated for one hour. After washing, plates were incubated with ABTS substrate for 15 minutes and read at 405 nm."}, "[7]": {"test_system": "FCγIIIb (NA2)", "assay": "Repeated FcγR reverse ELISA with SEQ ID NO:20 (Table 3)", "assay_type": "binding", "method": "as §4"}, "[8]": {"test_system": "FCγIIb/c", "assay": "Repeated FcγR reverse ELISA with SEQ ID NO:20 (Table 3)", "assay_type": "binding", "method": "as §4"}, "[9]": {"test_system": "Fc receptor (FcγI, FcγIIa/FcγIIb, and FcγIII)", "assay": "FcγR reverse ELISA, overall statements on FcR binding to PAP immune complexes", "method": "as §2, §3\nExperiments with SEQ ID NO:20 were repeated. Costar microtiter plates were coated with 1:10 dilutions of highly purified FcγIIa (His 131 allele aka […]), FcγIIb and FcγIIIb and incubated for 24 hours. […] After washing, plates were incubated with ABTS substrate for 15 minutes and read at 405 nm."}},
  "data": [
    {"substance": "Ala-Pro-Pro-Asp-Cys-Ala-Trp-His-Leu-Gly-Glu-Leu-Val-Trp-Cys-Thr (APPDCAWHLGELVWCT) [SEQ ID NO:20]", "values": [
      {"measurement": "OD 405 nm", "setting": "[1]; PAP pre-incubated with peptide or C1q one hour, C1q coated plates, lower OD = more inhibition, positive control 2.355", "result": 0.389},
      {"measurement": "Inhibition of C1q binding (ranking in words)", "setting": "[1]; summary of Table 1", "result": "greatest inhibition of C1q binding"},
      {"measurement": "OD405 FcγIIb", "setting": "[2]", "result": 0.496},
      {"measurement": "OD405 FcγIIa (R131 allele)", "setting": "[3]", "result": 0.509},
      {"measurement": "OD405 FcγIIIa", "setting": "[4]", "result": 0.670},
      {"measurement": "Fcγ1 (read at 405 nm)", "setting": "[5]; repeat experiment, positive control 2.333", "result": 0.264},
      {"measurement": "% inhibition of IC binding, Fcγ1", "setting": "[5]; versus positive control", "result": 89, "unit": "%"},
      {"measurement": "FCγIIa* (read at 405 nm)", "setting": "[6]; repeat experiment, positive control 3.509", "result": 0.209},
      {"measurement": "% inhibition of IC binding, FCγIIa*", "setting": "[6]; versus positive control", "result": 94, "unit": "%"},
      {"measurement": "FCγIIIb (NA2) (read at 405 nm)", "setting": "[7]; repeat experiment, positive control 3.060", "result": 0.266},
      {"measurement": "% inhibition of IC binding, FCγIIIb (NA2)", "setting": "[7]; versus positive control", "result": 91, "unit": "%"},
      {"measurement": "FCγIIb/c (read at 405 nm)", "setting": "[8]; repeat experiment, positive control 2.218", "result": 0.266},
      {"measurement": "% inhibition of IC binding, FCγIIb/c", "setting": "[8]; versus positive control", "result": 88, "unit": "%"},
      {"measurement": "Overall inhibition of FcR binding to PAP (ranking in words)", "setting": "[9]; summary of Table 2: FcγIIa, FcγIIb, FcγIIIa", "result": "greatest overall inhibition of FcR binding to PAP"},
      {"measurement": "Inhibition of Fc receptor binding to soluble PAP immune complexes", "setting": "[9]; summary of Table 3", "result": "inhibited binding of all three major classes of Fc receptor"}
    ]}
  ]
}
